Laboratory results taken from US20190000850A1, “COMBINATION CANCER THERAPY” (The Regents of the University of California, priority 2015, published 2019).
Entries after “also recorded” stand apart in the source; their conditions may differ.

How the values were obtained:
CEM cells [1] = assay: Inhibition of CEM cell growth by RNR inhibitors, 72 h; type: cell-based
Description: (§1) Cells were plated in a 384-well plate (1,000 cells/well for suspension cell lines and 500 cells/well for adherent cell lines in 30 μL). For suspension cell lines, the plate was incubated in 37° C. for 1 h to let the cells settle. For adherent cell lines, the plate was incubated overnight to allow the cells to seed. During incubation, drugs were diluted to desired concentration by serial dilution, vehicle condition was created by adding equivalent amount of DMSO. After incubation, 10 μL of diluted drugs were added to each well, and incubated for 72 h. After incubation, Cell TiterGlo reagent was added to each well according to manufacturer's instructions (Promega, CellTiter-Glo® Luminescent Cell Viability Assay). The plates were shaken for 2 min and incubated in dark for 8 min. Luminescence readings were obtained with luminometer (Molecular devices, SpectraMax).

[2] = Solubility study in phosphate buffer solution; type: physicochemical; details: aqueous buffer
CEM T-ALL cells = assay: ssDNA (F7-26) and pH2A.X measurement by FACS; type: cell-based; details: 3-AP 500 nM; 0.5, 4 and 18 h
Description: Cells were harvested and fixed and permeabilized with cytofix/cytoperm (BD biosciences) for 15 min in dark on ice. Cells were washed and subsequently resuspended in 100 μL 1× Perm/wash buffer (BD Sciences) for 15 min on ice. Cells were washed and subsequently resuspended in 50 μL with phospho-Histone H2A.X (Ser139) antibody conjugated to fluorochrome FITC (EMD Milipore, 1:800 dilutions in perm/wash) for 20 min in dark at ambient temperature. […] Cells were harvested and fixed with ice-cold methanol:PBS (6:1) for 24 h. Staining with F7-26 monoclonal antibody (Mab) was performed according to manufacturer's instructions (EMD Milipore). Fixed cells were resuspended in 250 μL of formamide and heated in a water bath at 75° C. for 10 min. Cells were then allowed to return to room temperature and then washed with 2 ml of 1% non-fat dry milk in PBS for 15 min. Subsequently, cells were resuspended in 100 μL of anti-ssDNA Mab F7-26 (EMD Milipore, 1:10 in 5% FBS in PBS) and incubated for 45 min at room temperature. Cells were washed with PBS and stained with 100 μL of fluorescence-conjugated goat anti-mouse IgM antibody (Santa Cruz Biotechnology, 1:50) for 45 min at room temperature.

[3] = tested on: dCK activity in p185^BCR-ABLArf^−/− pre-B cells; assay: ^3H-FAC uptake to evaluate dCK activity; type: cell-based, mouse; details: after 1 h with 3-AP treatment
[4] = tested on: p185^BCR-ABLArf^−/− pre-B cells; assay: dCTP pool and DNA-C measurement with [U-^13C9,^15N3]dC and [U-^13C6]glucose; type: cell-based, mouse; details: 3, 6, 9 and 12 h treatment
Description: Therefore, p185^BCR-ABLArf^−/− pre-B cells were labeled with [U-^13C9,^15N3]dC and [U-^13C6]glucose to measure the contribution of salvage pathway via dCK and de novo pathway via RNR, respectively.
(§4) The cells were incubated for 18 h or as indicated in the text before samples collection and processing.

leukemia cell growth = assay: IC50 (cytotoxicity assay) of RNR inhibitors, Table 1; type: cell-based; details: 3-AP: cell type independent
Description: as §1

CEM cells [5] = assay: Mass spectrometric assay of de novo (RNR) and salvage (dCK) contribution to dCTP and DNA-C; type: cell-based
Description: To analyze the differential utilization of de novo and nucleotide biosynthetic salvage pathways, cultured cells were incubated with stable isotope labeled DNA precursors. […] Extracted dNTP and DNA were analyzed in a triple quadrupole mass spectrometer (QQQ) using multiple reaction monitoring (MRM). The first (Q1) and third (Q3) quadrupoles function as mass filters while the second (Q2) quadrupole serves as a collision chamber. […] In Q2, the glycosidic bond of the selected dC is cleaved, releasing a protonated nucleobase (NB) fragment and a neutral deoxyribose (dR) molecule. The m/z specific NB fragments from dC is separated in Q3 and detected to generate ion chromatograms. […] Each identifier corresponded to a specific biosynthetic pathway and is defined as [x;y], where “x” is the number of heavy isotope-labeled atoms in NB and “y” is the number of heavy isotope atoms in dR. […] According to current biochemical maps of nucleotide metabolism, the [7;5] identifier can only arise from salvaging [U-^13C9,^15N3]dC into newly synthesized DNA. In contrast, a dC with a [0,5] identifier is a product of the de novo pathway. The ratio of the peak areas in the ion chromatograms of salvage [7;5] and de novo [0;5] identifiers describes the relative contributions of the two biosynthetic routes to the dCTP pool used for DNA replication.
as §4
Genomic DNA was extracted using the Quick-gDNA MiniPrep kit (Zymo Research, D3021) and hydrolyzed to nucleosides using the DNA Degradase Plus kit (Zymo Research, E2021) following manufacturer-supplied instructions. In the final step of DNA extraction, 50 μL of water was used to elute the DNA. A nuclease premix solution was prepared by mixing 10× buffer, DNA degradase Plus™ and water in the ratio of 2.5/1/1.5 (v/v/v). DNA hydrolysis reaction was prepared in mass spec vials by mixing 5 μL of the nuclease premix solution (5 U of enzyme) and 20 μL of eluted genomic DNA, the total volume becomes 25 μL. The samples were tapped and flicked downward prior to overnight before incubation at 37° C.
Cells were collected into microcentrifuge tube and centrifuged (450×g, 4 min, 4° C.). The supernatant was carefully aspirated. The cells were washed twice by the addition of 1 mL of cold PBS and centrifugation (450×g, 4 min 4° C.). PBS washes were aspirated. Thereafter, cells were lysed in 40 μL of 70% methanol/water (v/v), vortexed (30 s) and incubated on ice for 10 min. Then 40 μL of chloroform (Fisher) was added, vortexed (30 s) and incubated on ice for another 10 min. The samples were then centrifuged at max speed for 10 min at 4° C. Finally, the supernatant was transferred (≈25 μL) into a mass spec vial.
For genomic DNA and media analysis, an aliquot of DNA hydrolysis or media samples (20 μL) was injected directly onto a porous graphitic carbon column (Thermo Fisher Scientific Hypercarb, 100×2.1 mm, 5 μm particle size) equilibrated in solvent A (water/acetonitrile/formic acid, 95/5/0.2, v/v/v) and eluted (200 μL/min) with an increasing concentration of solvent B (acetonitrile/water/formic acid, 90/10/0.2, v/v/v): min/% B/flow rate (μL/min); 0/0/200, 5/0/200, 10/15/200, 20/15/200, 21/40/200, 25/50/200, 26/100/700, 30/100/700, 3I/O/700, 34/0/700, 35/0/200).

CEM-R-EYFP = assay: DNA-G biosynthesis labeling in isogenic CEM-R line; type: cell-based; details: 6-TG treatment
Description: (§2) We utilized an isogenic cell line, CEM-R (Owen 1992), which lacks the enzymes dCK and HPRT that are necessary for the salvage pathways for DNA-G biosynthesis. CEM-R cells were engineered to express enhanced yellow fluorescent protein (CEM-R-EYFP, a negative control) and human HPRT (CEM-R-HPRT) and were confirmed by WB. The labeled media contained […] [U-^13C6]glucose to represent the de novo contribution and 5 μM [^15N5]dG to represent salvage pathways, particularly HPRT-dependent nucleobase salvaging. CEM-R-EYFP relied exclusively on the de novo pathway for the DNA-G biosynthesis. In contrast, CEM-R-HPRT utilized both de novo and nucleobase salvage pathways nearly equally.
(§3) The pMSCV-HPRT-IRES-EYFP and pMSCV-TK1-IRES-EYFP plasmids were generated by inserting the human HPRT and TK1 coding sequence into the multiple cloning sites of the MSCV-IRES-EYFP plasmid, respectively. The pMSCV-hdCK-IRES-EYFP plasmid was generated as previously described (Laing RE 2010). Amphotropic retroviruses were generated by transient co-transfection of the MSCV retroviral plasmid and pCL-10A1 packaging plasmid into Phoenix-Ampho packaging cells. To generate EL4-EYFP, EL4-TK1, CEM-R-EYFP, CEM-R-dCK and CEM-R-HPRT lines, parental cells underwent spin-fection with the respective amphotropic retrovirus and were then sorted by flow cytometry to isolate pure populations of transduced cells. […]

CEM-R-HPRT = assay: DNA-G biosynthesis labeling in isogenic CEM-R line; type: cell-based; details: 6-TG treatment
Description: as §2, §3

CCRF-CEM T-ALL cells = assay: EdU pulse assay of cell cycle progression after release from G1 arrest; type: cell-based; details: 12 h after release from G1
Description: Following release from G1, cells progress to early, mid and late S phase (defined as S1, S2 and S3, respectively) and G2/M. By 18 h following release in drug-free media, 42.5% of cells progressed to S3. […] Thus, dCK represents a resistance mechanism to ATR inhibition.
Cells were treated with a CDK4/6 inhibitor, PD-0332991 (Selleckchem) for 18 h to arrest in G1 phase. Subsequently, cells were washed and released into fresh media containing 10% FBS to monitor the progression of synchronized cells throughout the cell cycle by flow cytometry analysis.
For measuring cell cycle progression of synchronous population of cells, cells were first arrested in G1 phase, then washed and released in treated media. Before collecting and fixing cells at various time points, cells were pulse-labeled with 10 μM EdU for 1 h, and then click-labeled with azide-Alexa Fluor 647 (Invitrogen; Click-iT EdU Flow cytometry kit) according to manufacturer's protocol. Total DNA content was assessed by staining with FxCycle-Violet (Invitrogen) at 1 μg/mL final concentration in PBS containing 2% FBS.

[6] = tested on: Chk1 and Claspin phosphorylation in CEM T-ALL cells; assay: Phosphoproteomics after G1 release; type: cell-based, human; details: with and without DI-82; 6 and 12 h after G1 release
Description: Cells were treated with a CDK4/6 inhibitor, PD-0332991 (Selleckchem) for 18 h to arrest in G1 phase. Cells were then washed twice with PBS and released in fresh media with treatment at a density of 0.5×10^6 cells/ml. Cells were collected at time point 6 and 12 h and solubilized using 0.5% sodium deoxycholate, 12 mM sodium lauryl sarcosine, and 50 mM triethylammonium bicarbonate pH 8.0 with 1 mL per 5×10^7 cells with trituration and vortexing. Cell lysates were heated at 95° C. for 5 min and water bath sonicated at RT for 5 min. Bicinchoninic acid protein assay (Pierce) was performed to determine protein concentration. […] Light, medium, and heavylabeled peptides were mixed 1:1:1, diluted with 0.1% formic acid to a final concentration of 3% acetonitrile and analyzed using 180 min data-dependent nLC-MS/MS on Thermo Orbitrap XL as later discussed. […] 5 uL of each SCX fraction was analyzed using 180 min data-dependent reverse-phase nLC-MS/MS on Thermo Orbitrap XL equipped with Eksigent Spark autosampler, Eksigent 2D nanoLC, and Phoenix ST Nimbus dual column source. […] Peptides were analyzed over 180 min linear gradient of 0-40% mobile phase B (97% acetonitrile, 3% dimethylsulfoxide, and 0.1% formic acid) at 300 nL/min. […]

ATM = ATM (Homo sapiens, UniProt Q13315); details: cited from earlier work
PANC-1 PDAC cells = assay: Cell-Titer-Glo viability assay, 72 h; type: cell-based; details: Homo sapiens, PANC-1, read-out: IC50 of VE-822
Description: as §1

CEM T-ALL = assay: Cell-Titer-Glo viability assay, 72 h; type: cell-based; details: read-out: IC50 of VE-822
Description: as §1

[7] = tested on: BCR-ABL p185^+/Arf^−/− pre B-ALL cells; assay: Systemic pre B-ALL model in C57BL/6 mice, bioluminescence imaging, survival, body weight; type: in vivo; details: VE-822 40 mg/kg orally once daily
Description: All drugs for oral administration were solubilized in Prototype 9′ (PEG-200:Transcutol:Labrasol:Tween-80 mixed in 5:3:1:1 ratio) as single agents or in combination. For i.p. administration, drugs were solubilized in PEG-400 and 1 mM Tris-HCl at a 1:1 (v:v) ratio. Dasatinib (LC Laboratories) was solubilized in 80 mM citric acid (pH 3.1, Boulos et al.) and was administered at a dose of 10 mg/kg by oral gavage. 2×10^5 luciferase expressing p185 cells were injected intravenously into C57BL/6 female mice for leukemia induction. All drugs were administered starting 6 or, 7 days after intravenous cell inoculation, when animals had developed a significant leukemic burden as monitored by bioluminescence imaging (IVIS Bioluminescence Imaging scanner). Dosing schedules are indicated in the text and figure legends. Mice were observed daily; those that became moribund during the trials (paralysis of hind limbs, significant body weight loss) were sacrificed immediately. Kaplan-Meier curves and Bioluminescence quantifications were generated using GraphPad Prism (v6.0f for Mac).
Mice were anesthetized with 2% isoflurane followed by an intraperitoneal injection of 50 μL (50 mg/ml) substrate luciferin. Mice were imaged with IVIS Bioluminescence Imaging scanner after 10 minutes after luciferin administration. […]

Chain of ATM (Q13315 whole entry, species assumed): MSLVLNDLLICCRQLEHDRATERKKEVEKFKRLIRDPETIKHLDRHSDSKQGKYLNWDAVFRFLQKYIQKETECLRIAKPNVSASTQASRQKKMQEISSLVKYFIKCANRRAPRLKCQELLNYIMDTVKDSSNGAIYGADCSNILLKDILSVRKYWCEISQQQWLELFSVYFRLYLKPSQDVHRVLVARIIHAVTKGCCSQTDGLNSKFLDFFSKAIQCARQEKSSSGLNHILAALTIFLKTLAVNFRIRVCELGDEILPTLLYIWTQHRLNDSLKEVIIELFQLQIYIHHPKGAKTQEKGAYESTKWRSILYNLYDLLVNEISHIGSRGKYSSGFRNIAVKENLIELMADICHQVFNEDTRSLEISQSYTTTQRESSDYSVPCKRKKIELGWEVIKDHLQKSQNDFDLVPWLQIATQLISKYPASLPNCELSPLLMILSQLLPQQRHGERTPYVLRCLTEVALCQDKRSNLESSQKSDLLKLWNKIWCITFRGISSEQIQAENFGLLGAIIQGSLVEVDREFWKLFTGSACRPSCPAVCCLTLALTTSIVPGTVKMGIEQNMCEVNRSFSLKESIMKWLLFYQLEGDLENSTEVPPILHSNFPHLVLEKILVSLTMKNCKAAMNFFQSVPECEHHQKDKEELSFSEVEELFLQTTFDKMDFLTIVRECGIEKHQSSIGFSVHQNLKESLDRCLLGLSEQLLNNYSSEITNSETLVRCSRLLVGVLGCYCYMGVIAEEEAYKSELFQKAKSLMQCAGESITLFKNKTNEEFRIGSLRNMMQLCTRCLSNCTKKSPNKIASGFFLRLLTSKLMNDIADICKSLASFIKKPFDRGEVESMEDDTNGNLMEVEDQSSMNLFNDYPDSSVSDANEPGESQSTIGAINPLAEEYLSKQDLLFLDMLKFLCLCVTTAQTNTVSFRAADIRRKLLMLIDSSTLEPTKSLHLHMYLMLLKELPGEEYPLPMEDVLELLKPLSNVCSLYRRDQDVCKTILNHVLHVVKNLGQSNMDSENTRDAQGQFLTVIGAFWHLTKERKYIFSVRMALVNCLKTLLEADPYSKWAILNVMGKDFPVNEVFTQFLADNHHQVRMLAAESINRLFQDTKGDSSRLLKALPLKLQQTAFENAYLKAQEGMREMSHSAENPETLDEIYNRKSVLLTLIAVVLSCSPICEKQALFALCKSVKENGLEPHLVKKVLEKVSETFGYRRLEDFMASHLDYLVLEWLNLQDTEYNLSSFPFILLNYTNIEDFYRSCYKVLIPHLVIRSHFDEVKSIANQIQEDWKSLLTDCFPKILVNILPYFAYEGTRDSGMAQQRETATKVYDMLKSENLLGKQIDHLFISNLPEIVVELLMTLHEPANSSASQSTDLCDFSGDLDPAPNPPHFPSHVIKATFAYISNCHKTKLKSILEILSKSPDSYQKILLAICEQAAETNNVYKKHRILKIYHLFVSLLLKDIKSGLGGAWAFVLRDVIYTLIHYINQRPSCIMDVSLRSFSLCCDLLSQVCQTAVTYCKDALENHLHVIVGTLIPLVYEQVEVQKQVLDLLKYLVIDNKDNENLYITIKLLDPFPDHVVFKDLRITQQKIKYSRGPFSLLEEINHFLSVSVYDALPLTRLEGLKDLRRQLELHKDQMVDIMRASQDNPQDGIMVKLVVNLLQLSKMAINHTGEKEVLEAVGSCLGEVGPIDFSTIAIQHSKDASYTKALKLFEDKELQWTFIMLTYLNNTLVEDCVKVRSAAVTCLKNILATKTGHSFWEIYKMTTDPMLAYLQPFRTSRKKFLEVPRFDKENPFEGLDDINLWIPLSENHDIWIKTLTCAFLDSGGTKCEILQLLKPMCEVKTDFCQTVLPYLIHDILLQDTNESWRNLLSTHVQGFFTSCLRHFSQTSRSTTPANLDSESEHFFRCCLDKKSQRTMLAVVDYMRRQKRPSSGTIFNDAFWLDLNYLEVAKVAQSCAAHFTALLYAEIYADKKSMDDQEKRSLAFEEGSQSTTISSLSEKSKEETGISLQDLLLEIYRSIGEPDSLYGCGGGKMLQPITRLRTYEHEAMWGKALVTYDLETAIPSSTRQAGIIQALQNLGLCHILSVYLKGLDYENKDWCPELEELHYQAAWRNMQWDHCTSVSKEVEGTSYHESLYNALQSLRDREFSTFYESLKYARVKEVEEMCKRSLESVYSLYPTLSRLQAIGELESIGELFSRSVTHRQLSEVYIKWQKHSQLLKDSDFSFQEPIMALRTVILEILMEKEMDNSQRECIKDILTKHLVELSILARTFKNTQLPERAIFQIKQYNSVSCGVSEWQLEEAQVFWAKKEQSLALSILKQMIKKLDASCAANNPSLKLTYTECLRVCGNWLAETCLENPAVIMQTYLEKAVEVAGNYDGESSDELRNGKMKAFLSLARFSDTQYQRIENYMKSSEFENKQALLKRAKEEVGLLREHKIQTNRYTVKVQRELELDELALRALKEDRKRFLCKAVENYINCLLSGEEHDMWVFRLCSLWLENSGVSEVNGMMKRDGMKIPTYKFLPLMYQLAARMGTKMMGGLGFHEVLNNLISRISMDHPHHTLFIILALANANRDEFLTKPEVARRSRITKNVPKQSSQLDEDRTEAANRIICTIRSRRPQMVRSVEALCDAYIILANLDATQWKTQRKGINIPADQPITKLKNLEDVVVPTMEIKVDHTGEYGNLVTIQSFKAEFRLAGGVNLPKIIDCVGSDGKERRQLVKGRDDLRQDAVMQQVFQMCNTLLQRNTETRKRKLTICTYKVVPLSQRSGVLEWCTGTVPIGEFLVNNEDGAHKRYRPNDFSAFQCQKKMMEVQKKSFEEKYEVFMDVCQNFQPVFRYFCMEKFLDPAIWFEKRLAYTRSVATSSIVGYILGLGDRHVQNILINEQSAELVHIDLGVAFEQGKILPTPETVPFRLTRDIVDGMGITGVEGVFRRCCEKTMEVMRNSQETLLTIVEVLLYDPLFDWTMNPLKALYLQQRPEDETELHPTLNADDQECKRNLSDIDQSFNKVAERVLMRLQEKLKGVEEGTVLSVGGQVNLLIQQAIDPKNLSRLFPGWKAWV

Compound: NC(=S)N/N=C/c1ncccc1N [3-AP, 3-aminopyridine-2-carboxyaldehyde-thiosemicarbazone]
- IC50 lower than the other RNR inhibitors (dT, GaM, HU) (CEM cells [1]): 50 to 150 fold
- solubility [2]: < 300 µg/mL
- RS and DNA damage biomarker expression (ssDNA, pH2A.X), words (CEM T-ALL cells): minimally induced
- increase in ^3H-FAC uptake [3]: ~2.5 fold
- dCTP pool [4]: increased their dCTP pool
- IC50 (leukemia cell growth): 1310 nM
- effect on de novo dCTP pool (CEM cells [5]; 3-AP at 500 nM, 18 h): did not affect
- increase in salvage dCTP pool (CEM cells [5]; 3-AP at 500 nM, 18 h): 2 fold

Compound: Nc1nc2nc[nH]c2c(=S)[nH]1 [6-thioguanine]
- DNA-G biosynthesis (CEM-R-EYFP): remained unaffected
- decrease of de novo and salvage pathway labeling of DNA-G (CEM-R-HPRT): ~10 fold

Compound: CNCc1ccc(-c2cc(-c3nc(-c4ccc(S(=O)(=O)C(C)C)cc4)cnc3N)on2)cc1 [VE-822]
- decrease in the number of cells in S2 (CCRF-CEM T-ALL cells): 16%
- phosphorylation of Chk1 and Claspin compared to untreated cells [6]: decreased phosphorylation
- IC50 (ATM): 34000 nM
- IC50 (PANC-1 PDAC cells): 3000 nM
- IC50 (CEM T-ALL): ~300 nM
- efficacy of single agent therapy in vivo [7]: not capable of eradicating p185 cells in vivo; also recorded: marginally efficacious
- effect on dCTP pool levels compared to untreated (CEM cells [5]; G1 released CEM cells): did not significantly impact
- total DNA-C labeling, less than untreated controls (CEM cells [5]; G1 released CEM cells): 30%
